According to ChEMBL document CHEMBL4613261, “Metabolic and Pharmaceutical Aspects of Fluorinated Compounds” (J Med Chem, 2020):
Converted amounts (≈) assume the structure as drawn. “And” between values parts separate entries of the source, which are not always exact repeats. Identical values can stand only once.

Columns and labels:
[1] = molecular target: T1, MGST1 (microsomal glutathione S-transferase 1) (Rattus norvegicus, UniProt P08011); test: Substrate activity at MGST1 in rat liver microsomes assessed as substrate depletion at 50 uM incubated for 30 mins in presence of GSH by liquid chromatography/mass spectrometry; type: ADME; details: read-out: Activity
T1 sequence (P08011 whole entry): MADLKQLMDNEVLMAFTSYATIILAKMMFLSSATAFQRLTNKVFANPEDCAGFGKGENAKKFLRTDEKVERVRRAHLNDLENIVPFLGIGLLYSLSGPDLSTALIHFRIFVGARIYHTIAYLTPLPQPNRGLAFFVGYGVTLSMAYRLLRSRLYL

[2] = Intrinsic clearance in human liver microsome; type: ADME; details: liver microsomes, read-out: CLH
[3] = Lipophilicity, log P of the compound; details: octanol/water
[4] = Protein binding in human plasma
[5] = Aqueous solubility of the compound in pH 6.8 buffer
[6] = Substrate activity at GSTZ (unknown origin) assessed as rate of drug conversion to S-(carboxymethyl)-glutathione per mg of protein; type: ADME; details: human
[7] = molecular target: Alanine racemase, biosynthetic (Escherichia coli K-12, UniProt P0A6B4); test: Substrate activity at Escherichia coli B alanine racemase assessed as partition ratio by measuring ratio of turnover rate to inactivation rate
[8] = molecular target: T2, Microsomal glutathione S-transferase 1 (Rattus norvegicus, UniProt P08011); test: Substrate activity at MGST1 in rat liver microsomes assessed as reactivity rate at 50 uM incubated for 1 to 40 mins in presence of GSH by liquid chromatography/mass spectrometry
T2 sequence (P08011 whole entry): T1 sequence (P08011 whole entry)

[9] = Half life in dog; type: ADME, Canis lupus familiaris; details: in vivo
[10] = Half life in human hepatocytes; type: ADME, cell-based, Hepatocyte
[11] = Half life in rat; type: ADME; details: in vivo
[12] = Substrate activity at cytochrome p450 in phenobarbital-induced rat liver microsomes assessed as cytochrome p450-mediated-deethoxylation per mg of protein; type: ADME
[13] = Drug recovery in rat excreta assessed as metabolically unchanged parent compound at 100 mg/kg, po; type: ADME, organism-based; details: read-out: Drug recovery
[14] = Toxicity in dog; parameters: species or system Canis lupus familiaris; details: in vivo
[15] = molecular target: T3, Maleylacetoacetate isomerase (Rattus norvegicus, UniProt P57113); test: Substrate activity at GSTZ1 in rat liver cytosol assessed as defluorination activity; type: ADME, subcellular
T3 sequence (P57113 whole entry): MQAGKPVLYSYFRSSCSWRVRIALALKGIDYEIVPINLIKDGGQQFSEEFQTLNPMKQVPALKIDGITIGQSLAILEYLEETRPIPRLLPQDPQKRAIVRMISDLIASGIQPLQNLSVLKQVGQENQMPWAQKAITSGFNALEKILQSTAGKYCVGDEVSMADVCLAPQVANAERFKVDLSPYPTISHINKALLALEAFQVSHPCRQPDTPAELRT

[16] = Substrate activity at recombinant human GSTZ1C expressed in Escherichia coli M15 assessed as rate of catalysis per mg of protein; type: ADME
[17] = Drug elimination in human; type: ADME; details: read-out: Drug excretion
[18] = molecular target: Cytochrome P450 2C9 (Homo sapiens, UniProt P11712); test: Inhibition of CYP2C9 (unknown origin) assessed as reduction in diclofenac 4-hydroxylation; type: ADME
[19] = molecular target: T4, Cytochrome P450 2C8 (Homo sapiens, UniProt P10632); test: Inhibition of CYP2C8 (unknown origin) assessed as reduction in amodiaquine N-deethylation; type: ADME
T4 sequence (P10632 whole entry): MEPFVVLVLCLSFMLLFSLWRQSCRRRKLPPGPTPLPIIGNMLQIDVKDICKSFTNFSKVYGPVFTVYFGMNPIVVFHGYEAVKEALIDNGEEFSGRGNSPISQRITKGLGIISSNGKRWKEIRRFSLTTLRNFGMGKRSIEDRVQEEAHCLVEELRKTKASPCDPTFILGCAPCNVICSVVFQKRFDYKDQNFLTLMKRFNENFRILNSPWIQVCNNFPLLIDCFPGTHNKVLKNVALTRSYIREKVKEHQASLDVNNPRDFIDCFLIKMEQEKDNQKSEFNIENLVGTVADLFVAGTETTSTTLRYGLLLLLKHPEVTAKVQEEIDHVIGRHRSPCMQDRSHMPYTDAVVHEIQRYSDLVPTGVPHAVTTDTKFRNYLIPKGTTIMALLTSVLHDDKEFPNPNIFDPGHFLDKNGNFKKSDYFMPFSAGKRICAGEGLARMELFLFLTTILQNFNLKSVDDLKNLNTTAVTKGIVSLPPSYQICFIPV

[20] = molecular target: T5, Adenosylhomocysteinase (Rattus norvegicus, UniProt P10760); test: Reversible inhibition of rat liver S- adenosyl-L-homocysteine hydrolase using SAH as substrate by spectrophotometric method
T5 sequence (P10760 whole entry): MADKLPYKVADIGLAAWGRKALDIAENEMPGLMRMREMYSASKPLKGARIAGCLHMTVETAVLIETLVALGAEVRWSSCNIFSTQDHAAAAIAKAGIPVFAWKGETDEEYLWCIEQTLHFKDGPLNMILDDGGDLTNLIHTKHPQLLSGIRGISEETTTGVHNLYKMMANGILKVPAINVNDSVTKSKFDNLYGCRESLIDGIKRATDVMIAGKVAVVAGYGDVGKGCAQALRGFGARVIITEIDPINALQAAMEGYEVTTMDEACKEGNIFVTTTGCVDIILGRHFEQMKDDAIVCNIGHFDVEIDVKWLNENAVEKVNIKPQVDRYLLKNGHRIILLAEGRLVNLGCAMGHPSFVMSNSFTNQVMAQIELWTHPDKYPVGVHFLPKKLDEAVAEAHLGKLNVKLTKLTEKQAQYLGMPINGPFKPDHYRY

[21] = Lipophilicity, log P of the compound by C18 reverse phase HPLC; type: physicochemical
[22] = Acute toxicity in rat measured after 4 hrs; details: in vivo
[23] = Toxicity in Wistar rat measured for 6 days; details: in vivo, 144 h
[24] = system: Homo sapiens; test: Induction of fluoride toxicity in human assessed as fluoride level in plasma at 200 mg, po BID administered for at least 6 months (reference value: 2.54 uM); type: organism-based; details: in vivo

Chain of Alanine racemase, biosynthetic (P0A6B4 whole entry): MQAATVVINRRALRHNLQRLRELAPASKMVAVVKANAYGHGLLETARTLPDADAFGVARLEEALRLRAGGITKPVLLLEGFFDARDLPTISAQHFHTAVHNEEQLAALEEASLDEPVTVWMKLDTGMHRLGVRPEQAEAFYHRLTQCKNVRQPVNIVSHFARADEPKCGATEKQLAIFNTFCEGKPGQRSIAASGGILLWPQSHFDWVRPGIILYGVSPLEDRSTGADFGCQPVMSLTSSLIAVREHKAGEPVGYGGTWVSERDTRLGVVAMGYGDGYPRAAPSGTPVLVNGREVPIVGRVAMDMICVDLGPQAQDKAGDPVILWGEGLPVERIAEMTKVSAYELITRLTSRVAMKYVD
Chain of Cytochrome P450 2C9 (P11712 whole entry): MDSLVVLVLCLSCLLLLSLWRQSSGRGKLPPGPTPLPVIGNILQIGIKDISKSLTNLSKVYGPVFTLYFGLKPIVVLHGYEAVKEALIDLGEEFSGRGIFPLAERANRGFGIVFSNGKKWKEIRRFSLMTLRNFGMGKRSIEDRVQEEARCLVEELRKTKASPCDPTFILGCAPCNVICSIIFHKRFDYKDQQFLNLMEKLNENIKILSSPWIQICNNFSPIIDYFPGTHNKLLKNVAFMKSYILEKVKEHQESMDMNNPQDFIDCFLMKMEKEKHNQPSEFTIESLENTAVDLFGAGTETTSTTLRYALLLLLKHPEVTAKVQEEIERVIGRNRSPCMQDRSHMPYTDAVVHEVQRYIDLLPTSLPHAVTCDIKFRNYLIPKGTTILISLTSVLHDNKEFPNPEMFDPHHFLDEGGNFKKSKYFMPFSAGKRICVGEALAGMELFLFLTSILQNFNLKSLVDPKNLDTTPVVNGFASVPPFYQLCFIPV

Cc1cccnc1Cl
metabolised at 0.5 h, 50 µM [1]: 14%

Nc1nc2ccc(SC(F)(F)F)cc2s1
microsomal CLint [2]: 40.9 µL/min/mg | logP [3]: 3.6 | fraction unbound [4]: 0.24 | solubility ([5]; pH 6.8 buffer): 124 µM (≈ 31 µg/mL)

CC(Cl)C(=O)O (racemic)
K [6]: 1655 nmol/min

CC(Br)C(=O)O (racemic)
K [6]: 2142 nmol/min

CC(I)C(=O)O (racemic)
K [6]: 2532 nmol/min

NC(C(=O)O)C(F)(F)F (racemic)
Ratio [7]: 10

Clc1ccccn1 [2-CHLOROPYRIDINE]
Activity [8]: < 2 nmol/min/mg

N[C@H]1C[C@@H](C(=O)O)CC1=C(F)F [CPP-115 FREE BASE]
half-life [9]: 1 to 2.3 h | half-life [10]: 20 h | half-life [11]: 1 to 2.3 h

CCOc1ccc2ccc(=O)oc2c1 [ETHOXYCOUMARIN]
Activity [12]: 1.93 nmol/min

N[C@H](CF)C(=O)O [FLUDALANINE]
Ratio [7]: 810

N#Cc1c[nH]cc1-c1cccc2c1OC(F)(F)O2 [FLUDIOXONIL]
dose excreted [13]: 12%

O=C(O)CF [FLUOROACETATE]
LD [14]: 0.05 mg/kg | Activity [15]: 3% | K [16]: 210 nmol/min | K [6]: 172 nmol/min

FC(F)(F)C(Cl)Br (stereo not given) [HALOTHANE]
dose excreted [17]: 80%

Cc1ccc(NC(=O)C2(c3ccc4c(c3)OC(F)(F)O4)CC2)nc1-c1cccc(C(=O)O)c1 [LUMACAFTOR]
IC50 [18]: 32 µM | IC50 [19]: 12 µM

Nc1ncnc2c1ncn2[C@@H]1C=C(CO)[C@@H](O)[C@H]1O [NEOPLANOCIN A]
Ki [20]: 0.00839 µM

CCOc1ccc(NC(C)=O)cc1 [PHENACETIN]
Activity [12]: 3.48 nmol/min

CCOc1ccccc1 [PHENETOLE]
logP [21]: 2.96

O=[N+]([O-])c1cn2c(n1)OC[C@@H](OCc1ccc(OC(F)(F)F)cc1)C2 [PRETOMANID]
microsomal CLint [2]: < 25 µL/min/mg | logP [3]: 2.2 | PPB [4]: 38% | solubility ([5]; buffer): 8 µM (≈ 2.87 µg/mL)

Nc1nc2ccc(OC(F)(F)F)cc2s1 [RILUZOLE]
microsomal CLint [2]: 38.9 µL/min/mg | PPB [4]: 85%

FC(F)=C(F)F [TETRAFLUOROETHYLENE]
Activity [22]: 40000 ppm

OCC(F)(F)F [TRIFLUOROETHANOL]
LD50 [23]: 440 mg/kg and 210 mg/kg

C[C@@H](c1ncncc1F)[C@](O)(Cn1cncn1)c1ccc(F)cc1F [VORICONAZOLE]
Activity [24]: 14.32 µM
